US20230233674A1 (priority 2022, published 2023)

System: Influenza A/Hong Kong/2369/2009 (H1N1)
Conditions: mouse, in vivo

## CCOC(=O)C1=C[C@@H](OC(CC)CC)[C@H](NC(C)=O)[C@@H](N)C1 [Oseltamivir]
  mean peak weight loss: −32%
  mice that succumbed to the disease: 90%
  treatment effect: no significant effect
